Laboratory results from publication PMC7932537, “Quantitative profiling of protease specificity” (PLoS Computational Biology, 2021).

Columns and labels:
MMP-2 = molecular target: T1, MMP-2 (Homo sapiens, UniProt P08253); assay: K(obs) of individual phage substrates (set of 1369); type: biochemical; details: MMP2
T1 sequence (P08253 110-660): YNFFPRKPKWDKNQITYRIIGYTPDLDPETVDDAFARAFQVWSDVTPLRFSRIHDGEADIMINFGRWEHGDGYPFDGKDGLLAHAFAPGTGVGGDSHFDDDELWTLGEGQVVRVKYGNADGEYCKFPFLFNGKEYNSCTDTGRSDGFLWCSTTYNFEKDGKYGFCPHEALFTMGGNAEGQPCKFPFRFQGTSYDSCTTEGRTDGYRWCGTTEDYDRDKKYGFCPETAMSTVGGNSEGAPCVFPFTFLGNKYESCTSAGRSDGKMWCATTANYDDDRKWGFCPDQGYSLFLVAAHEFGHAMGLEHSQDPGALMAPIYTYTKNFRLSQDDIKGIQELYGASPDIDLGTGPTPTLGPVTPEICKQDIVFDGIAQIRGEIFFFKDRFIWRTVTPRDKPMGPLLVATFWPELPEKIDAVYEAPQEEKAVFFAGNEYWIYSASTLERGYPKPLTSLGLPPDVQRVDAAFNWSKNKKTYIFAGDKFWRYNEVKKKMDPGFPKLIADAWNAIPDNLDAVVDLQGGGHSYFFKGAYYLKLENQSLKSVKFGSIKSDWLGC

MMP-9 = MMP-9 (Homo sapiens, UniProt P14780); assay: as above; type: biochemical; details: MMP9, individual phage substrates, set of 1369 peptides
Sequence of MMP-9 (P14780 94-707): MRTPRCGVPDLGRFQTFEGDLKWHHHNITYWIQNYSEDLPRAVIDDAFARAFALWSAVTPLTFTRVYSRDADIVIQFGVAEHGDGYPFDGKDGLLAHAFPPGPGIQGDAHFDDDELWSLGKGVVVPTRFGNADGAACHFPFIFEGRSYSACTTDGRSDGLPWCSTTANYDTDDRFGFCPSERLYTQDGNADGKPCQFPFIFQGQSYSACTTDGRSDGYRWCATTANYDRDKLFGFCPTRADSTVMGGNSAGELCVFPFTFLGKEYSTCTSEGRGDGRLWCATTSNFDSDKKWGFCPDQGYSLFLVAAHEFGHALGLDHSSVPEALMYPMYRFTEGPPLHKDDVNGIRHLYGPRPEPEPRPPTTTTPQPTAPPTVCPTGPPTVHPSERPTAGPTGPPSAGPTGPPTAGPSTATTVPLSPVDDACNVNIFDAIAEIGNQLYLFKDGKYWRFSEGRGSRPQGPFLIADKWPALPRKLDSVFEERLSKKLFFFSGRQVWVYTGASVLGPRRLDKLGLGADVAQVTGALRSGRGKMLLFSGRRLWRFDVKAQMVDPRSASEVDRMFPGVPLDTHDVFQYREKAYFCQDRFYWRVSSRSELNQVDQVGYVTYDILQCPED

[1] = individual phage substrate from the set of 1369 peptides, cleavage position marked by the dash in the sequence
[2] = dash in sequence marks cleavage position
[3] = individual phage substrates, set of 1369 peptides, cleavage position marked by '-' in the sequence
[4] = '-' marks the cleavage position (P1-P1')

Substance	Kobs (MMP-2; [1])	Kobs (MMP-9; [2])	Kobs (MMP-2; [3])	Kobs (MMP-9; [4])
NTFLH-LTASG	0 M⁻¹ s⁻¹	0 M⁻¹ s⁻¹		
PDVFA-LTASG			3637.04 M⁻¹ s⁻¹	6688.74 M⁻¹ s⁻¹
PGIAN-LTASG			7815.03 M⁻¹ s⁻¹	2218.08 M⁻¹ s⁻¹
PGVRF-LTASG			8941.32 M⁻¹ s⁻¹	7815.03 M⁻¹ s⁻¹
PMARY-LTASG			12792.1 M⁻¹ s⁻¹	3637.04 M⁻¹ s⁻¹
PSPRA-ITASG			12792.1 M⁻¹ s⁻¹	12792.1 M⁻¹ s⁻¹
PSPRY-LTASG	12792.1 M⁻¹ s⁻¹	10866.7 M⁻¹ s⁻¹		
PTLWR-ITASG	386.839 M⁻¹ s⁻¹	0 M⁻¹ s⁻¹		
PVVWW-QTASG			836.403 M⁻¹ s⁻¹	5461.43 M⁻¹ s⁻¹
PYAEN-LTASG	3253.29 M⁻¹ s⁻¹	551.253 M⁻¹ s⁻¹		
QAAFH-LTASG			3964.21 M⁻¹ s⁻¹	3253.29 M⁻¹ s⁻¹
QHLAA-LTASG			12792.1 M⁻¹ s⁻¹	484.315 M⁻¹ s⁻¹
QKYSN-LTASG			5889.62 M⁻¹ s⁻¹	0 M⁻¹ s⁻¹
QRANS-ITASG			551.253 M⁻¹ s⁻¹	0 M⁻¹ s⁻¹
QRMDL-LTASG			0 M⁻¹ s⁻¹	0 M⁻¹ s⁻¹
QRVLP-LTASG	6396.07 M⁻¹ s⁻¹	2038.8 M⁻¹ s⁻¹		
QSPVQ-LTASG			12792.1 M⁻¹ s⁻¹	4205.91 M⁻¹ s⁻¹
QVPVF-LTASG			12792.1 M⁻¹ s⁻¹	8321.48 M⁻¹ s⁻¹
RAGFQ-LTASG	0 M⁻¹ s⁻¹	0 M⁻¹ s⁻¹		
RDLWK-LTASG			0 M⁻¹ s⁻¹	56.119 M⁻¹ s⁻¹
RDVLW-LTASG			3964.21 M⁻¹ s⁻¹	6688.74 M⁻¹ s⁻¹
RGMQN-LTASG			1610.61 M⁻¹ s⁻¹	690.17 M⁻¹ s⁻¹
RGPVF-LTASG	10866.7 M⁻¹ s⁻¹	10866.7 M⁻¹ s⁻¹		
RGVWK-LTASG	0 M⁻¹ s⁻¹	1071.29 M⁻¹ s⁻¹		
RHLAK-LTASG			9740.44 M⁻¹ s⁻¹	0 M⁻¹ s⁻¹
RHMLG-LTASG	1154.21 M⁻¹ s⁻¹	726.013 M⁻¹ s⁻¹		
RKALN-LTASG			4613.14 M⁻¹ s⁻¹	5667.28 M⁻¹ s⁻¹

Substance	Kobs (MMP-2; [1])	Kobs (MMP-9; [2])	Kobs (MMP-2; [3])	Kobs (MMP-9; [4])
RNLAS-LTASG			7815.03 M⁻¹ s⁻¹	142.481 M⁻¹ s⁻¹
RNVNF-LTASG	2409.72 M⁻¹ s⁻¹	484.315 M⁻¹ s⁻¹		
RPAQD-LTASG			27.918 M⁻¹ s⁻¹	231.616 M⁻¹ s⁻¹
RRPAS-MTASG			5090.5 M⁻¹ s⁻¹	7015.91 M⁻¹ s⁻¹
RRPLR-ITASG	3165.09 M⁻¹ s⁻¹	12792.1 M⁻¹ s⁻¹		
RRTAW-LTASG			8321.48 M⁻¹ s⁻¹	1373.05 M⁻¹ s⁻¹
RRVLA-LTASG	12792.1 M⁻¹ s⁻¹	12792.1 M⁻¹ s⁻¹		
RSPLM-MTASG			4922.1 M⁻¹ s⁻¹	12792.1 M⁻¹ s⁻¹
RTPLM-LTASG			12792.1 M⁻¹ s⁻¹	12792.1 M⁻¹ s⁻¹
RTYSH-LTASG			3079.62 M⁻¹ s⁻¹	0 M⁻¹ s⁻¹
RVIRH-LTASG			12792.1 M⁻¹ s⁻¹	7815.03 M⁻¹ s⁻¹
RVLSR-LTASG			8941.32 M⁻¹ s⁻¹	0 M⁻¹ s⁻¹
RVPKL-LTASG	1870.4 M⁻¹ s⁻¹	4922.1 M⁻¹ s⁻¹		
RVPRG-LTASG			12792.1 M⁻¹ s⁻¹	12792.1 M⁻¹ s⁻¹
RWPAW-LTASG	9740.44 M⁻¹ s⁻¹	8941.32 M⁻¹ s⁻¹		
RYPVN-MTASG			6688.74 M⁻¹ s⁻¹	5090.5 M⁻¹ s⁻¹
RYPWA-LTASG			8941.32 M⁻¹ s⁻¹	12792.1 M⁻¹ s⁻¹
SAVRA-LTASG			9740.44 M⁻¹ s⁻¹	7815.03 M⁻¹ s⁻¹
SDIRW-LTASG			7386.83 M⁻¹ s⁻¹	4335.13 M⁻¹ s⁻¹
SGAFH-ILGTA			1030.73 M⁻¹ s⁻¹	5667.28 M⁻¹ s⁻¹
SGAFS-LMRTA			323.705 M⁻¹ s⁻¹	451.441 M⁻¹ s⁻¹
SGAGR-LRATA	142.481 M⁻¹ s⁻¹	517.582 M⁻¹ s⁻¹		
SGALA-LLDTA			0 M⁻¹ s⁻¹	619.843 M⁻¹ s⁻¹
SGALD-LKRTA	0 M⁻¹ s⁻¹	0 M⁻¹ s⁻¹		
SGALG-LLETA			171.876 M⁻¹ s⁻¹	171.876 M⁻¹ s⁻¹
SGALH-LRETA			201.585 M⁻¹ s⁻¹	201.585 M⁻¹ s⁻¹
SGAMN-LTLTA			0 M⁻¹ s⁻¹	0 M⁻¹ s⁻¹

Substance	Kobs (MMP-2; [1])	Kobs (MMP-9; [2])	Kobs (MMP-2; [3])	Kobs (MMP-9; [4])
SGANS-LVATA			1327.88 M⁻¹ s⁻¹	27.918 M⁻¹ s⁻¹
SGANY-IRATA	1465.65 M⁻¹ s⁻¹	418.952 M⁻¹ s⁻¹		
SGAQA-LTLTA			171.876 M⁻¹ s⁻¹	113.394 M⁻¹ s⁻¹
SGARG-IKLTA	0 M⁻¹ s⁻¹	0 M⁻¹ s⁻¹		
SGARN-LMATA			10866.7 M⁻¹ s⁻¹	12792.1 M⁻¹ s⁻¹
SGAVA-LRLTA			1981.53 M⁻¹ s⁻¹	3438.54 M⁻¹ s⁻¹
SGAWN-MRVTA			292.668 M⁻¹ s⁻¹	3079.62 M⁻¹ s⁻¹
SGAYH-LQQTA			0 M⁻¹ s⁻¹	762.325 M⁻¹ s⁻¹
SGAYS-LRVTA			2157.02 M⁻¹ s⁻¹	5090.5 M⁻¹ s⁻¹
SGFSE-LTLTA			0 M⁻¹ s⁻¹	0 M⁻¹ s⁻¹
SGGRN-LTATA	12792.1 M⁻¹ s⁻¹	7815.03 M⁻¹ s⁻¹		
SGGSG-LRMWI			484.315 M⁻¹ s⁻¹	1239.69 M⁻¹ s⁻¹
SGHMH-MRSTA	0 M⁻¹ s⁻¹	0 M⁻¹ s⁻¹		
SGIES-MYVTA			0 M⁻¹ s⁻¹	0 M⁻¹ s⁻¹
SGINM-LTLTA			0 M⁻¹ s⁻¹	0 M⁻¹ s⁻¹
SGIQT-MKVTA			0 M⁻¹ s⁻¹	0 M⁻¹ s⁻¹
SGIWK-LTATA			0 M⁻¹ s⁻¹	386.839 M⁻¹ s⁻¹
SGIYG-LRNTA			1981.53 M⁻¹ s⁻¹	2157.02 M⁻¹ s⁻¹
SGLAK-LTVTA			0 M⁻¹ s⁻¹	0 M⁻¹ s⁻¹
SGLAR-LSMTA	0 M⁻¹ s⁻¹	0 M⁻¹ s⁻¹		
SGLAS-LRLTA			874.197 M⁻¹ s⁻¹	0 M⁻¹ s⁻¹
SGLGE-LRGTA			12792.1 M⁻¹ s⁻¹	3850.82 M⁻¹ s⁻¹
SGLGM-LATTA			418.952 M⁻¹ s⁻¹	84.609 M⁻¹ s⁻¹
SGLLN-MYITA			0 M⁻¹ s⁻¹	0 M⁻¹ s⁻¹
SGLQN-LMLTA			113.394 M⁻¹ s⁻¹	113.394 M⁻¹ s⁻¹
